Read-outs that look alike come from different tables or passages of the source.
Key:
mu opiate receptor (MOR) = test: MOR agonist activity using [35S]GTPγS binding assay in striatal membranes; assay type: biochemical; settings: for MOR agonist activity ([35S]GTPγS binding), FLNA-Binding Compound as Agonist 1 μM + BFNA: 1 μM compound + 1 μM β-funaltrexamine
Protocol: To assess the mu opiate receptor (MOR) agonist activity of positive compounds from the FLNA screening, compounds were tested in a [^35S]GTPγS binding assay using striatal membranes. […] This assay measures a functional consequence of receptor occupancy at one of the earliest receptor-mediated events. The assay permits traditional pharmacological parameters of potency, efficacy and antagonist affinity, with the advantage that agonist measures are not subjected to amplification or other modulation that may occur when analyzing parameters further downstream of the receptor.
Thus, striatal tissue was homogenized in 10 volumes of ice cold 25 mM HEPES buffer, pH 7.4, which contained 1 mM EGTA, 100 mM sucrose, 50 μg/ml leupeptin, 0.04 mM PMSF, 2 μg/ml soybean trypsin inhibitor and 0.2% 2-mercaptoethanol. The homogenates were centrifuged at 800×g for 5 minutes and the supernatants were centrifuged at 49,000×g for 20 minutes. The resulting pellets were suspended in 10 volume of reaction buffer, which contained 25 mM HEPES, pH 7.5, 100 mM NaCl, 50 μg/ml leupeptin, 2 μg/ml soybean trypsin inhibitor, 0.04 mM PMSF and 0.02% […].
The resultant striatal membrane preparation (200 μg) was admixed and maintained (incubated) at 30° C. for 5 minutes in reaction buffer as above that additionally contained 1 mM MgCl2 and 0.5 nM [^35S]GTPγS (0.1 μCi/assay, PerkinElmer Life and Analytical Sciences) in a total volume of 250 μl and continued for 5 minutes in the absence or presence of 0.1-10 μM of an assayed compound of interest. The reaction was terminated by dilution with 750 μl of ice-cold reaction buffer that contained 20 mM MgCl2 and 1 mM EGTA and immediate centrifugation at 16,000×g for 5 minutes.
The resulting pellet was solubilized by sonicating for 10 seconds in 0.5 ml of immunoprecipitation buffer containing 0.5% digitonin, 0.2% sodium cholate and 0.5% NP-40. Normal rabbit serum (1 μl) was added to 1 ml of lysate and incubated at 25° C. for 30 minutes. Nonspecific immune complexes were removed by incubation with 25 μl of protein A/G-conjugated agarose beads at 25° C. for 30 minutes followed by centrifugation at 5,000×g at 4° C. for 5 minutes. The supernatant was divided and separately incubated at 25° C. for 30 minutes with antibodies raised against Gαo proteins (1:1,000 dilutions).
The immunocomplexes so formed were collected by incubation at 25° C. for 30 minutes with 40 μl of agarose-conjugated protein A/G beads and centrifugation at 5,000×g at 4° C. for 5 minutes. The pellet was washed and suspended in buffer containing 50 mM Tris-HCl, pH 8.0, and 1% NP-40. The radioactivity in the suspension was determined by liquid scintillation spectrometry.

[1] = target: FLNA pentapeptide of SEQ ID NO: 1 (Bn-VAKGL) (Homo sapiens, UniProt P21333); test: FITC-NLX-based FLNA screening assay (inhibition of FITC-naloxone binding to Bn-VAKGL on streptavidin plates); settings: for inhibition at 0.01 µM / inhibition at 0.1 µM / inhibition at 1 µM: 10 nM FITC-NLX
[2] = 0.1 μM compound relative to DAMGO
[3] = 1 μM compound + BFNA relative to DAMGO + BFNA
[4] = 1 μM compound relative to DAMGO
[5] = FLNA-binding compound 0.01 μM, read-out: Percent Binding Inhibition
[6] = FLNA-binding compound 0.1 μM, read-out: Percent Binding Inhibition
[7] = FLNA-binding compound 1 μM, read-out: Percent Binding Inhibition
[8] = Series C-1, 0.1 μM compound, relative to DAMGO
[9] = Series C-1, 0.1 μM compound, [35S]GTPγS binding to Gαo, striatal membranes
[10] = Series C-1, 1 μM compound + 1 μM β-FNA
[11] = Series C-1, 1 μM compound + β-FNA, relative to DAMGO + BFNA
[12] = Series C-1, 1 μM compound, relative to DAMGO
[13] = Series C-1, 1 μM compound, [35S]GTPγS binding to Gαo, striatal membranes
[14] = read-out: Percent Binding Inhibition, FLNA-binding compound 0.01 μM
[15] = read-out: Percent Binding Inhibition, FLNA-binding compound 0.1 μM
[16] = read-out: Percent Binding Inhibition, FLNA-binding compound 1 μM

| Structure (SMILES) | inhibition at 0.01 µM [1, 5] [%] | inhibition at 0.1 µM [1, 6] [%] | inhibition at 1 µM [1, 7] [%] | % DAMGO (0.1 μM) (mu opiate receptor (MOR); [8]) [%] | Concentration of FLNA-Binding Compound as Agonist 0.1 μM (mu opiate receptor (MOR); [9]) [%] | Concentration of FLNA-Binding Compound as Agonist 1 μM + BFNA (mu opiate receptor (MOR); [10]) [%] | % DAMGO + BFNA (mu opiate receptor (MOR); [11]) [%] | % DAMGO (1 μM) (mu opiate receptor (MOR); [12]) [%] | Concentration of FLNA-Binding Compound as Agonist 1 μM (mu opiate receptor (MOR); [13]) [%] | also measured |
| --- | --- | --- | --- | --- | --- | --- | --- | --- | --- | --- |
| CC1CCC(C(C)C)C(OCC(O)CN2CCCN(C)CC2)C1 (centres unmarked) [Compound A0010] | 36 | 36.5 | 39 | – | – | – | – | – | – | MOR agonist activity ([35S]GTPγS binding), FLNA-Binding Compound as Agonist 0.1 μM (mu opiate receptor (MOR); 0.1 μM compound): 277.2%; % DAMGO (0.1 μM) (mu opiate receptor (MOR); [2]): 161.9%; MOR agonist activity ([35S]GTPγS binding), FLNA-Binding Compound as Agonist 1 μM (mu opiate receptor (MOR); 1 μM compound): 319.0%; MOR agonist activity ([35S]GTPγS binding), FLNA-Binding Compound as Agonist 1 μM + BFNA (mu opiate receptor (MOR)): 190.3%; % DAMGO + BFNA (mu opiate receptor (MOR); [3]): 365.3%; % DAMGO (1 μM) (mu opiate receptor (MOR); [4]): 119.5% |
| CC(=O)c1ccc(S(=O)(=O)N2CCC3(CC2)NC(=O)CO3)cc1 [Compound C0087M] | 51.6 | 57.9 | 61.5 | – | – | – | – | – | – | % DAMGO (0.1 μM) (mu opiate receptor (MOR); Series C-2, 0.1 μM compound, relative to DAMGO): 138.9%; MOR agonist activity, percent [35S]GTPγS binding at the stated compound concentration (mu opiate receptor (MOR); Series C-2, 0.1 μM compound, [35S]GTPγS binding to Gαo, striatal membranes): 262.8%; MOR agonist activity, percent [35S]GTPγS binding at the stated compound concentration (mu opiate receptor (MOR); Series C-2, 1 μM compound + 1 μM β-FNA): 142.5%; % DAMGO + BFNA (mu opiate receptor (MOR); Series C-2, 1 μM compound + β-FNA, relative to DAMGO + BFNA): 293.8%; % DAMGO (1 μM) (mu opiate receptor (MOR); Series C-2, 1 μM compound, relative to DAMGO): 132.8%; MOR agonist activity, percent [35S]GTPγS binding at the stated compound concentration (mu opiate receptor (MOR); Series C-2, 1 μM compound, [35S]GTPγS binding to Gαo, striatal membranes): 329.6% |
| Cc1cccc(S(=O)(=O)N2CCC3(CC2)OCCN3S(=O)(=O)c2cccc(C)c2)c1 [Compound C0014] | – | – | – | 82.0 | 144.9 | 76.3 | 116.1 | 59.2 | 153.5 | inhibition at 0.01 µM [1, 14]: 29.5%; inhibition at 0.1 µM [1, 15]: 38.8%; inhibition at 1 µM [1, 16]: 40% |
| CC(=O)c1ccc(C(=O)N2CCOC23CCN(S(=O)(=O)c2ccc(C(C)=O)cc2)CC3)cc1 [Compound C0053] | 28.9 | 33.8 | 39.3 | 71.7 | 104.0 | 93.1 | 211.6 | 67.5 | 157.2 | – |
| CC1CN(CC(O)COc2ccc(Br)c(Cl)c2)CC(C)O1 (centres unmarked) [Compound A0045] | 28.1 | 35 | 37.8 | – | – | – | – | – | – | MOR agonist activity ([35S]GTPγS binding), FLNA-Binding Compound as Agonist 0.1 μM (mu opiate receptor (MOR); 0.1 μM compound): 143.9%; % DAMGO (0.1 μM) (mu opiate receptor (MOR); [2]): 73.3%; MOR agonist activity ([35S]GTPγS binding), FLNA-Binding Compound as Agonist 1 μM (mu opiate receptor (MOR); 1 μM compound): 274.2%; MOR agonist activity ([35S]GTPγS binding), FLNA-Binding Compound as Agonist 1 μM + BFNA (mu opiate receptor (MOR)): 99.2%; % DAMGO + BFNA (mu opiate receptor (MOR); [3]): 134.2%; % DAMGO (1 μM) (mu opiate receptor (MOR); [4]): 99.3% |
| Cc1ccc(S(=O)(=O)N2CCOC23CCN(CC2CCC2)CC3)cc1 [Compound 9] | – | – | – | – | – | – | – | – | – | MOR agonist activity, FLNA-Binding Compound as Agonist 0.1 μM (preliminary study) (mu opiate receptor (MOR); 0.1 μM, average of two runs): 156.6%; MOR agonist activity, FLNA-Binding Compound as Agonist 1 μM + βNFA (preliminary study) (mu opiate receptor (MOR); 1 μM + βNFA, average of two runs): 56.6%; MOR agonist activity, FLNA-Binding Compound as Agonist 1 μM (preliminary study) (mu opiate receptor (MOR); 1 μM, average of two runs): 197.2%; MOR agonist activity (conclusion in words) (mu opiate receptor (MOR); preliminary study): MOR agonists; Binding to FLNA (conclusion in words) ([1]; preliminary study): bind well to FLNA |
| Cc1ccc(S(=O)(=O)N2CCC3(CC2)OCCN3S(=O)(=O)c2ccc(C)cc2)cc1 [Compound C0001] | – | – | – | 75.2 | 129.3 | 33.9 | 52.9 | 66.6 | 184.3 | inhibition at 0.01 µM [1, 14]: 34.8%; inhibition at 0.1 µM [1, 15]: 42.9%; inhibition at 1 µM [1, 16]: 51.3% |

— US10363239B2, “Method for inhibiting growth of cancer cells” (Pain Therapeutics, Inc., priority 2013, dated 2019)
